Data reported in ChEMBL document CHEMBL1201862, “PubChem BioAssay data set” (2004).
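Cells were grown in 96-well plates and exposed to each compound for 48 hours at five concentrations; endpoints were interpolated linearly between bracketing concentrations, or set to the highest concentration if not reached. GI50 = concentration required for 50% inhibition of growth.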 Activity calls are given as the source filed them. Rule as the data show it: active = GI50 up to about 1.1 µM and inactive = higher.

Columns and labels:
Assay in all cases: NCI tumour cell line growth inhibition, 48 h
Malme-3M = system: Malme-3M
SF-295 = system: SF-295
HCT-116 = system: HCT-116
HCT-15 = system: HCT-15
HT-29 = system: HT-29
MDA-N = system: MDA-N
SW-620 = system: SW-620
HCC 2998 = system: HCC 2998
CAKI-1 = system: CAKI-1
SK-MEL-28 = system: SK-MEL-28
RXF 393 = system: RXF 393
NCI-H460 = system: NCI-H460
A498 = system: A498
TK-10 = system: TK-10
SF-268 = system: SF-268
MCF7 = system: MCF7
786-0 = system: 786-0
SN12C = system: SN12C
MDA-MB-231 = system: MDA-MB-231
PC-3 = system: PC-3
Hs-578T = system: Hs-578T
ACHN = system: ACHN
CCRF-CEM = system: CCRF-CEM
KM12 = system: KM12
EKVX = system: EKVX
BT-549 = system: BT-549
SNB-19 = system: SNB-19
LOX IMVI = system: LOX IMVI
K562 = system: K562
NCI-H23 = system: NCI-H23
UO-31 = system: UO-31
HOP-62 = system: HOP-62
OVCAR-3 = system: OVCAR-3
A549 = system: A549
HOP-92 = system: HOP-92
SK-MEL-5 = system: SK-MEL-5
OVCAR-5 = system: OVCAR-5
RPMI-8226 = system: RPMI-8226
DU-145 = system: DU-145
OVCAR-8 = system: OVCAR-8
NCI/ADR-RES = system: NCI/ADR-RES
SF-539 = system: SF-539
MDA-MB-435 = system: MDA-MB-435
COLO 205 = system: COLO 205
OVCAR-4 = system: OVCAR-4
U-251 = system: U-251
UACC-257 = system: UACC-257
SNB-75 = system: SNB-75
SR = system: SR
IGROV-1 = system: IGROV-1
NCI-H522 = system: NCI-H522
HL-60 = system: HL-60
NCI-H226 = system: NCI-H226
MOLT-4 = system: MOLT-4

In the case of `NC(=O)C(N)Cc1ccc(O)cn1` (centres undefined), the GI50 (Malme-3M) is reported as > 100 µM (inactive), the GI50 (SF-295) is reported as > 100 µM (inactive) and the GI50 (HCT-116) is reported as > 100 µM (inactive). The GI50 (HCT-15) was greater than 100 µM, the GI50 (HT-29) was > 100 µM (inactive) and the GI50 (MDA-N) was > 100 µM (inactive). The GI50 (SW-620) was > 100 µM (inactive), the GI50 (HCC 2998) was > 100 µM (inactive) and the GI50 (CAKI-1) was > 100 µM (inactive). For the same compound, the GI50 (SK-MEL-28) was > 100 µM (inactive), the GI50 (RXF 393) was > 100 µM (inactive) and the GI50 (NCI-H460) was > 100 µM (inactive). The GI50 (A498) was > 100 µM (inactive), the GI50 (TK-10) was > 100 µM (inactive) and the GI50 (SF-268) was > 100 µM (inactive). For the same compound, the GI50 (MCF7) was > 100 µM (inactive), the GI50 (786-0) was > 100 µM (inactive) and the GI50 (SN12C) was > 100 µM (inactive). The GI50 (MDA-MB-231) was > 100 µM (inactive), the GI50 (PC-3) was > 100 µM (inactive) and the GI50 (Hs-578T) was > 100 µM (inactive). The GI50 (ACHN) was > 100 µM (inactive), the GI50 (CCRF-CEM) was > 100 µM (inactive) and the GI50 (KM12) was > 100 µM (inactive). For the same compound, the GI50 (EKVX) was > 100 µM (inactive), the GI50 (BT-549) was > 100 µM (inactive) and the GI50 (SNB-19) was > 100 µM (inactive). For the same compound, the GI50 (LOX IMVI) was > 100 µM (inactive), the GI50 (K562) was > 100 µM (inactive) and the GI50 (NCI-H23) was > 100 µM (inactive). The GI50 (UO-31) was > 100 µM (inactive), the GI50 (HOP-62) was > 100 µM (inactive) and the GI50 (OVCAR-3) was > 100 µM (inactive). The GI50 (A549) was > 100 µM (inactive), the GI50 (HOP-92) was > 100 µM (inactive) and the GI50 (SK-MEL-5) was > 100 µM (inactive). The GI50 (OVCAR-5) was > 100 µM (inactive), the GI50 (RPMI-8226) was > 100 µM (inactive) and the GI50 (DU-145) was > 100 µM (inactive). For the same compound, the GI50 (OVCAR-8) was > 100 µM (inactive), the GI50 (NCI/ADR-RES) was > 100 µM (inactive) and the GI50 (SF-539) was > 100 µM (inactive). The GI50 (MDA-MB-435) was > 100 µM (inactive), the GI50 (COLO 205) was > 100 µM (inactive) and the GI50 (OVCAR-4) was > 100 µM (inactive). The GI50 (U-251) was > 100 µM (inactive), the GI50 (UACC-257) was > 100 µM (inactive) and the GI50 (SNB-75) was > 100 µM (inactive). The GI50 (SR) was > 100 µM (inactive), the GI50 (IGROV-1) was > 100 µM (inactive) and the GI50 (NCI-H522) was > 100 µM (inactive). The GI50 (HL-60) was > 100 µM (inactive), the GI50 (NCI-H226) was > 100 µM (inactive) and the GI50 (MOLT-4) was > 100 µM (inactive).
